Earlier results as cited in patent publication US7153867B2, “Use of nitrogen substituted thalidomide analogs for the treatment of macular degenerator” (Celgene Corporation, priority 2001, dated 2006).

Tested on: vascular endothelial cell proliferation
Conditions: in vitro; endothelial versus tumor cell proliferation

In the case of `CO[C@@H]1[C@H](OC(=O)NC(=O)CCl)CC[C@]2(CO2)[C@H]1[C@@]1(C)O[C@@H]1CC=C(C)C` [AGM-1470], the “half-maximal inhibition of vascular endothelial cell proliferation at lower concentration than tumor cell proliferation” value is listed as 4 logs.
